Experimental data as given in US8768431B2, “Systems and methods for tissue imaging” (The Regents of the University of Michigan, priority 2007, dated 2014).

How the values were obtained:
Assay type in all cases: in vivo, human
[1] = test system: metastatic PCa osseous lesions; test: fDM and mean ADC diffusion MRI of osseous lesions in a metastatic PCa patient; conditions: for mean ADC, femoral head lesion: baseline 74.5×10^−6; for mean ADC, sacral lesion: baseline 110.8×10^−6; for mean ADC, ilium lesion: baseline 78.0×10^−6
Description: (§1) Patient Information A hormone-naïve person with newly diagnosed metastatic PCa was consented and was enrolled into the study. They were initiated on combined androgen blockade with bicalutamide and goserelin acetate. Magnetic resonance imaging scans were acquired at weeks 0 (baseline), 2, and 8 following treatment initiation which were used to generate the Functional Diffusion Maps at the 2 and 8 week time intervals. Due to pain and pathologic fracture, the patient was also treated with palliative radiation therapy encompassing the sacrum and ilium at 2 weeks post initiation of androgen deprivation therapy.
(§2) Magnetic Resonance Imaging Magnetic resonance imaging (MRI) examinations including diffusion-weighted and standard anatomic sequences were performed before and 2 weeks after initiation of therapy. MR imaging was performed on a 3-T scanner (Achieva model; Philips Medical Systems, Bothell, Wash.) using a quadrature body coil for transmission and a six-channel cardiac coil for reception. Standard sequences for depiction of anatomy and tumor extent included axial proton density (repetition time [TR]/echo time [TE]=2700/30 msec, two averages) turbo spin-echo and axial T2-weighted turbo spin-echo (TR/TE=7800/60 msec, two averages) with fat suppression through a short inversion time (TI=200 msec). Geometry for these sequences was as follows: field of view, 281 mm right/left by 200 mm anterior/posterior; thirty-eight 4-mm sections with a 1-mm gap; 256—232 acquisition matrix for proton density; and 248 —165 for T2-weighted scans. Diffusion-weighted scans were acquired using fat-suppressed, single-shot, spinecho, echo-planar imaging to reduce motion artifact and parallel imaging (SENSE factor=2) to reduce spatial distortion. Geometry of the diffusion-weighted scans was as follows: 350 mm right/left by 302 mm anterior/posterior; thirty 5-mm sections with a 1-mm gap; 200—172 acquisition matrix; TR/TE=2000/58 msec; and 8 averages for low (b=0 sec/mm2) and 16 averages for high (b=800 sec/mm2) diffusion-sensitivity scans. Apparent diffusion coefficient (ADC) maps were calculated in the routine manner given by the logarithm of the ratio of low-b and high-b images, then scaled by the inverse of b-value difference.
Diffusion Analysis Lesions in MR images acquired at weeks 2 and 8 were coregistered to their corresponding pretreatment MR images using an automatic algorithm based on maximizing mutual information. Registration was accomplished for each individual tumor located in the sacrum, ilium, and femoral head regions after the images were cropped to localize the registration to a limited region-of-interest (ROI) containing a single lesion. Lesions were manually contoured by a radiologist who defined the ROI by inspection of all available image data. Diffusion-average data were generated for weeks 0, 2 and 8 using the ROI contours of each of the three lesions and the mean change in diffusion values were calculated. Computation of fDMs for each lesion at weeks 2 and 8 was accomplished by comparison of voxels within the tumor at weeks 2 and 8 with the pretreatment values (week 0) as previously described (see, e.g., Moffat B A, et al., (2005) Proc Natl Acad Sci USA 102 (15), 5524-5529; Hamstra D A, et al., (2005) Proc Natl Acad Sci USA 102 (46), 16759-16764; each herein incorporated by reference in their entireties) using MIAMI Fuse (University of Michigan, Ann Arbor, Mich.) (see, e.g., Meyer C R, et al., (1997) Med Image Anal 1 (3), 195-206; herein incorporated by reference in its entirety). The tumor was segmented into three different categories wherein the red voxels represent regions within the tumor where ADC values increased (>[…]), the blue voxels represent a decreased ADC (<[…]), and the green regions represent tumor diffusion values that were within these thresholds (e.g., unchanged). […]

[2] = test system: Prostate-specific antigen; test: Serum prostate-specific antigen levels in a metastatic PCa patient; conditions: week 0 10.7 ng/ml
Description: as §1
Clinical Correlates Serum samples were obtained at weeks 0 (baseline), 2, and 8 following treatment initiation. Prostate-specific antigen levels were quantified and expressed in […] of plasma.

[3] = test system: metastatic PCa osseous lesions; test: Tumor volume by T2-weighted MRI in a metastatic PCa patient; conditions: for Tumor volume, Ilium: pretreatment 2.34; for Tumor volume, Femoral Head: pretreatment 52.97; for Tumor volume, Sacrum: pretreatment 68.29
Description: as §1, §2
At the time of initial diagnosis, the patient underwent Tc-99 m MDP BS to ascertain the extent of skeletal involvement. […] After receiving androgen deprivation therapy for 7 weeks, increased sclerosis was observed by CT (FIG. 9B, arrow). […] Further characterization of the lesions was achieved by MRI. […] Tumor volumes were quantified using ROI analysis of each of the three tumors evaluated using T2-weighted MR images at weeks 0, 2, and 8 post-treatment initiation. […] Overall, tumor volume measurements were unable to detect significant perturbations in tumor size in the 8-week timeframe following treatment initiation.

[4] = 8 weeks posttreatment, palliative radiation at 2 weeks
[5] = 8 weeks, palliative radiation at 2 weeks
[6] = Week 3 (so in the source), palliative radiation at 2 weeks

Substance: bicalutamide and goserelin acetate
- mean percentage change from baseline of mean ADC, three lesions ([1]; 2 weeks): −0.7±4.7%
- decrease of mean ADC with respect to pre-therapy baseline, three lesions ([1]; 2 weeks post-therapy (FIG. 12 legend)): 0.7±4.8%
- fDM, tumor volume with increased ADC, ilium lesion ([1]; 2 weeks posttreatment): 24.5%
- fDM, tumor volume with increased ADC, sacral lesion ([1]; 2 weeks posttreatment): 26.4%
- decrease in mean ADC, sacral lesion ([1]; 2 weeks vs baseline): ~10%
- mean ADC, femoral head lesion ([1]; 2 weeks): 77.8×10^−6 mm^2/sec
- mean ADC, sacral lesion ([1]; 2 weeks): 99.8×10^−6 mm^2/sec
- mean percentage change (increase) from baseline of mean ADC, three lesions ([1]; 8 weeks): 8.3±4.3%
- fDM, tumor volume with increased ADC, femoral head lesion ([1]; 8 weeks posttreatment): 36.4%
- fDM, tumor volume with increased ADC, ilium lesion [1, 4]: 47.1%
- fDM, tumor volume with increased ADC, sacral lesion [1, 4]: 29.0%
- increase in mean ADC above baseline, sacral lesion ([1]; 8 weeks vs baseline): ~5%
- increase in mean ADC, ilium lesion ([1]; 8 weeks vs baseline): 16.7%
- mean ADC, femoral head lesion ([1]; 8 weeks): 76.8×10^−6 mm^2/sec
- mean ADC, ilium lesion [1, 5]: 91.1×10^−6 mm^2/sec
- mean ADC, sacral lesion [1, 5]: 116.2×10^−6 mm^2/sec
- average fDM percent of tumor volume with increased diffusion, three lesions ([1]; week 2): 24±1.6%
- mean ADC, ilium lesion ([1]; week 2): 80.7×10^−6 mm^2/sec
- fDM, volume with significant increase in ADC, femoral head lesion ([1]; week 2 posttreatment): 21.1%
- average fDM percent of tumor volume with increased diffusion, three lesions ([1]; week 8): 38±5.2%
- PSA level ([2]; week 2 posttreatment): 1.3 ng/mL
- PSA level ([2]; week 8 posttreatment): 0.3 ng/mL
- Tumor volume, Ilium ([3]; Week 2): 2.76 cm^3
- Tumor volume, Femoral Head ([3]; Week 2): 51.52 cm^3
- Tumor volume, Sacrum ([3]; Week 2): 69.46 cm^3
- Tumor volume, Ilium [3, 6]: 2.56 cm^3
- Tumor volume, Femoral Head ([3]; Week 3 (so in the source)): 51.35 cm^3
- Tumor volume, Sacrum [3, 6]: 72.21 cm^3
